Assay results taken from patent publication US9801839B2, “Therapeutic method” (Macfarlane Burnet Institute for Medical Research and Public …, priority 2014, dated 2017).
Entries after “also recorded” stand apart in the source; their conditions may differ. Where a name gives a salt, the structure may show the parent alone.

How the values were obtained:
Ect cells [1] = assay: Cytokine release in transwells (FlowCytomix bead assay); assay type: cell-based, human; details: for IL-6 secretion induced by TLR3 agonist PIC / IL-8 secretion induced by TLR3 agonist PIC / IL-1RA production: 0.3% acid pH 3.9 or media acidified to pH 3.9 with HCl; for IL-1RA production: absence or presence of PIC
Protocol: (§1) Cytokines were measured using FlowCytomix assays, utilising the basic reagents kit, in conjunction with simplex kits for IL-6, IL-8 and IL-1RA (eBiosciences).
(§2) Test Procedure • 1. Calculate required volumes of reagents and make standards, bead mixtures and biotin-conjugate as described above. • 2. Add 15 μL of either standard, sample or blank (1× assay buffer) to appropriately labelled tubes. • 3. Add 15 μL of prepared bead mixture to each tube. • 4. Add 30 μL of biotin-conjugate mix to each tube, mix tubes well and incubate at room temp for 2 hours. Protect samples from light with foil. • 5. Prepare Streptavidin-PE mix. • 6. Add 0.6 ml 1× assay buffer to each tube and centrifuge at 200 g for 5 min. • 7. Discard s/n, leaving approx. 100 μL. Repeat for a total of 2 washes. • 8. Add 30 μL of Streptavidin-PE mix to all tubes, mix well and incubate at room temp for 1 hour (protected from light). • 9. Add 0.6 ml 1× assay buffer to each tube and centrifuge at 200 g for 5 min. • 10. Discard s/n, leaving approx. 100 μL. Repeat for a total of 2 washes. • 11. Discard s/n from final wash, leaving 100-200 μL of buffer. Analyse samples on the flow cytometer within 24 hours (preferable the same day as the experiment).
(§3) The following concentrations of TLR agonists (Table 3.) have been used to activate FGT cells either alone of added with LA-containing media for 18-24 hours.

[2] = test system: vaginal (VK2) epithelial cells
[3] = test system: endocervical (End) epithelial cells
[4] = test system: ectocervical (Ect) epithelial cells
[5] = test system: epithelial cells from the lower female reproductive tract; assay: Cytotoxicity in a standard plate format; assay type: cell-based, human; details: 0.4% L-lactic acid, standard plate format (data not shown)
End cells = assay: Cytokine release in transwells (FlowCytomix bead assay); assay type: cell-based, human
Protocol: (§4) An analysis was performed to determine if physiologic noncytotoxic concentrations of L-LA alter the release of immune modulators by VK2, End and Ect cells by incubating cells in transwells with L-LA for 24 h at 37° C. in serum free keratinocyte medium and harvesting supernatants (from the apical chamber) for release of immune modulators.
as §1, §2, §3

VK2 cells = assay: as above; assay type: cell-based, human
Protocol: as §4, §1, §2, §3

Ect cells [6] = assay: as above; assay type: cell-based, human; details: 0.3%
[7] = test system: primary ectocervical cells; assay: Cytokine/chemokine production by primary cells in transwells; assay type: cell-based, human; details: 0.3% LA, PIC or both
Source text: Culture of Human Primary Ectocervical Cells in Transwells. To further qualify the data in Example 9, we repeated the experiment with primary ectocervical cells.

[8] = test system: Ect1 E6/E7 ectocervical epithelial cell line; assay: Cyto/chemokine analysis (Procartaplex, Luminex) after 1 hour treatment; assay type: cell-based, human; details: Ect; for IL-1RA production from cells stimulated with PIC, acid alone / PIC-induced cytokine production, acid alone: 0.03% benzoic acid or 0.15% citric acid; for PIC-induced cytokine production, acid alone: compared with low pH alone (HCl); for LA-induced production of IL-1RA in the presence of the acid: 0.3% LA with 0.03% benzoic acid or 0.15% citric acid; for IL-1RA production, no TLR agonist / IL-6 basal production, no TLR agonist: 1 hour treatment at pH 3.9 (acids at various concentrations, gels diluted to about 0.3% LA), supernatant after 18 hours; for other immune mediators (IL-8, MIP3α, TNF, IL-1B, RANTES), no TLR agonist: 1 hour treatment at pH 3.9, not shown; for LA inhibition of PIC-induced IL-8, IL-6 and TNF in the presence of the acid: PIC and 0.3% LA with 0.03% benzoic acid or 0.15% citric acid
[9] = test system: human female reproductive tissue; details: low pH; cited from earlier work
[10] = test system: Ect1 E6/E7 ectocervical epithelial cell line; assay: Viability (MTS) 18 hours after 1 hour treatment; details: range of concentrations, pH 3.9, 1 hour incubation, read 18 hours later
Protocol: The human ectocervical epithelial cell line Ect1 E6/E7 was utilized for these experiments. Cells were cultured and treated in serum free keratinocyte media (SFKM) containing supplements as per ATCC recommendations. Cells were seeded in 6 mm transwell inserts at a density of 100,000 cells per well, and cultured for 7 days prior to treatment. […] Cytokine-containing supernatants were collected and stored at −80° C. for future analysis and cell viability assessed via MTS assay as per manufacturer's recommendations.
NOTE: The pH of all treatment media containing gels/acids was adjusted to pH 3.9 (to match that of 0.3% LA) prior to treatment. This was performed to ensure that a similar concentration of protonated LA, the active form of LA, was compared. A pH control (media adjusted to pH 3.9 with HCl) was included to determine the effect of low pH alone.
Due to the poor buffering capacity of HCl, treatments containing HCl were refreshed every 20 min during the 1 hour treatment time to ensure the low pH of the treatment media was maintained.

[11] = 0.3% acid (pH 3.9) or low pH alone (pH 3.9 with HCl)
[12] = 0.3% in apical medium, pH 3.9, 24 h
[13] = 0.3%, pH 3.9, absence or presence of PIC
[14] = added to the apical medium in the transwell system, 24 hr
[15] = PIC 1 hour with 0.3% LA or gels diluted to about 0.3% LA, pH 3.9

C[C@@H](O)C(=O)O [D-LA, D-(−)-lactic acid]
IL-6 secretion induced by TLR3 agonist PIC (Ect cells [1]): reduce secretion | IL-8 secretion induced by TLR3 agonist PIC (Ect cells [1]): reduce secretion | IL-1RA production (Ect cells [1]): increase IL-1RA production

Cl [HCl, Hydrochloric acid, reference compound]
IL-6 secretion induced by TLR3 agonist PIC (Ect cells [1]): neither neutralised L-LA nor HCl acidified media had any significant effect | IL-8 secretion induced by TLR3 agonist PIC (Ect cells [1]): neither neutralised L-LA nor HCl acidified media had any significant effect | IL-1RA production (Ect cells [1]): neither neutralised L-LA nor HCl acidified media had any significant effect | effect on cell viability [2, 11]: non-toxic | effect on cell viability [3, 11]: non-toxic | effect on cell viability [4, 11]: non-toxic

C[C@H](O)C(=O)O [L-LA, L-(+)-lactic acid]
cytotoxicity in standard plate format [5]: highly cytotoxic | IL-6 secretion induced by TLR3 agonist PIC (End cells; [12]): reduces secretion | IL-8 secretion induced by TLR3 agonist PIC (End cells; [12]): reduces secretion | IL-1RA production with Pam3Ck (TLR2) and lipopolysaccharide (TLR4) (End cells; 0.3%, pH 3.9): same result | IL-1RA production (End cells; [13]): induces IL-1RA production | IL-6 secretion induced by TLR3 agonist PIC (VK2 cells; [12]): reduces secretion | IL-8 secretion induced by TLR3 agonist PIC (VK2 cells; [12]): reduces secretion | IL-1RA production with Pam3Ck (TLR2) and lipopolysaccharide (TLR4) (VK2 cells; 0.3%, pH 3.9): same result | IL-1RA production (VK2 cells; [13]): induces IL-1RA production | IL-6 secretion induced by TLR3 agonist PIC (Ect cells [1]): reduce secretion; also recorded: reduced the production | IL-8 secretion induced by TLR3 agonist PIC (Ect cells [1]): reduce secretion; also recorded: reduced the production | IL-1RA production (Ect cells [1]): induces IL-1RA production; also recorded: increase IL-1RA production; also recorded: significant increase | decreasing levels of proinflammatory cytokines (IL-6, IL-8) induced by PIC, neutralised (Ect cells [1]; 0.3% at pH 7.4): neither neutralised L-LA nor HCl acidified media had any significant effect | increasing the production of IL-1RA, neutralised (Ect cells [1]; 0.3% at pH 7.4): neither neutralised L-LA nor HCl acidified media had any significant effect | treatment time sufficient for the effects on IL-1RA, IL-6, IL-8, TNFα, RANTES and MIP3α (Ect cells [1]; 0.3% with or without PIC for 0.5, 1 or 18 hrs, cytokines measured at 18 hrs): 30 min | IL-1RA production with Pam3Ck (TLR2) and lipopolysaccharide (TLR4) (Ect cells [1]; 0.3%, pH 3.9): same result | L-lactic acid concentrations tolerated [2, 14]: up to 0.4% | L-lactic acid concentrations tolerated [3, 14]: up to 0.4% | L-lactic acid concentrations tolerated [4, 14]: up to 0.4% | MIP3α production induced by TLR agonist (PIC) (Ect cells [6]): reduced the production | RANTES production induced by TLR agonist (PIC) (Ect cells [6]): reduced the production | TNFα production induced by TLR agonist (PIC) (Ect cells [6]): reduced the production

CC(O)C(=O)O (centres unmarked) [LA, lactic acid]
production of IL-1RA, IL-6, IL-8, TNFα, RANTES and MIP3α [7]: trend similar to that of LA treatment of cells lines | IL-1β production, no TLR agonist ([8]; 1 hour treatment, levels below the limit of detection (data not shown)): small increase | PIC-induced production of IL-6 [8, 15]: inhibits | PIC-induced production of IL-8 [8, 15]: inhibits | PIC-induced production of TNF [8, 15]: inhibits | inflammatory activity on human female reproductive tissue [9]: pro-inflammatory

O=C(O)c1ccccc1 [benzoic acid, Benzoic acid]
IL-1RA production from cells stimulated with PIC, acid alone [8]: neither citric nor benzoic acid altered | PIC-induced cytokine production, acid alone [8]: did not appear to alter | LA-induced production of IL-1RA in the presence of the acid [8]: largely preserved | IL-1RA production, no TLR agonist [8]: Neither acid was associated with an altered expression | IL-6 basal production, no TLR agonist [8]: Neither acid was associated with an altered expression | other immune mediators (IL-8, MIP3α, TNF, IL-1B, RANTES), no TLR agonist [8]: similarly unaltered | LA inhibition of PIC-induced IL-8, IL-6 and TNF in the presence of the acid [8]: persists | viability of Ect cells, acid excipients [10]: Neither benzoic nor citric acid had any significant effect

O=C(O)CC(O)(CC(=O)O)C(=O)O [citric acid, Citric acid]
IL-1RA production from cells stimulated with PIC, acid alone [8]: neither citric nor benzoic acid altered | PIC-induced cytokine production, acid alone [8]: did not appear to alter | IL-1RA production, acid in combination with PIC and LA ([8]; 0.15% citric acid, compared to cells stimulated with LA and PIC): reduced production | LA-induced production of IL-1RA in the presence of the acid [8]: largely preserved | IL-1RA production, no TLR agonist [8]: Neither acid was associated with an altered expression | IL-6 basal production, no TLR agonist [8]: Neither acid was associated with an altered expression | other immune mediators (IL-8, MIP3α, TNF, IL-1B, RANTES), no TLR agonist [8]: similarly unaltered | LA inhibition of PIC-induced IL-8, IL-6 and TNF in the presence of the acid [8]: persists
